Test [1] has as its target Sphingosine 1-phosphate receptor 2 (Homo sapiens, UniProt O95136). In words: (§1) In Vitro Binding Assay: I. Master Stock SolutionUnless specified otherwise, the sample compounds were diluted in 100% anhydrous DMSO including all dilutions. The compounds were tested as the citrate salt (1 equivalent per molecule). If the sample compound is provided in a different solvent all master stock dilutions are performed in the specified solvent. All control wells contained identical solvent final concentrations as the sample compound wells.II. Compound Plate AssayThe sample compounds were transferred from a master stock solution into a daughter plate that was used in the assay. Each sample compound was diluted into an assay buffer (1×HBSS with 20 mM HEPES, 2.5 mM Probenecid, and 0.4% Free Fatty Acid BSA) at an appropriate concentration to obtain final specified concentrations.III. Antagonist Assay FormatUsing the EC80 values that were determined real-time, stimulated all pre-incubated sample compounds and reference antagonists (if applicable) were compared with the EC80 values of reference agonist. These were read for 180 seconds using the […] (This assay added reference agonist to respective wells-then fluorescences measurements were collected to calculate IC50 values).

Test [2] addresses Sphingosine 1-phosphate receptor 5 (Homo sapiens, UniProt Q9H228). Described as §1.

This passage reports IC50 results from ChEMBL document CHEMBL5726257, “Sphingosine 1-phosphate receptor antagonists” (2017).

Sphingosine 1-phosphate receptor 2, sequence (O95136 whole entry): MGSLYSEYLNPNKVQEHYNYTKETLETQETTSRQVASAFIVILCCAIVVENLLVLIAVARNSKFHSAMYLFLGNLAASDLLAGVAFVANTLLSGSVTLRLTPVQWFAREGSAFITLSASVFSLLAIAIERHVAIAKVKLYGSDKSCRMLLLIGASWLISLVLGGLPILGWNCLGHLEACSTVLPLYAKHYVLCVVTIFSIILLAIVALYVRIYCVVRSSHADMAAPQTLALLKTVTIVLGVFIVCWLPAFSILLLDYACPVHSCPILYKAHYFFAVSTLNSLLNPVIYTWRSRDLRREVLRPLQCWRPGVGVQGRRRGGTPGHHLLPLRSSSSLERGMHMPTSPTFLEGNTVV
Sphingosine 1-phosphate receptor 5, sequence (Q9H228 whole entry): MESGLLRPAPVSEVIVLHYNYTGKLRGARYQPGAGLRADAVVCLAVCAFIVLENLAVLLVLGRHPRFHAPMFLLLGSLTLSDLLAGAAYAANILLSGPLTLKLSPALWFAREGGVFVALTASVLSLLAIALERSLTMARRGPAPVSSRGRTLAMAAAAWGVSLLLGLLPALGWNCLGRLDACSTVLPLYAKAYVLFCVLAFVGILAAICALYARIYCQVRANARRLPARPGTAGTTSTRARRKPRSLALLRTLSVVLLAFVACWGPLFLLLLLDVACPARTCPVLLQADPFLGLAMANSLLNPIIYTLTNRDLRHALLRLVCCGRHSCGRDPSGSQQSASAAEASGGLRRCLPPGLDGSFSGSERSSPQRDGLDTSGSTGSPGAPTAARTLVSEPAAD

As for `Cc1nn(C)c2nc(N(CCCO)NC(=O)Nc3cc(Cl)nc(Cl)c3)cc(C(C)C)c12`, the IC50 was 0.019 µM in test [1] and 0.012 µM in test [2].

In the case of `C=CCN(NC(=O)Nc1cc(Cl)nc(Cl)c1)c1cc(C(C)C)c2c(C)nn(C)c2n1`, the IC50 in test [1] was 0.052 µM; in test [2], 0.11 µM.

Broadly, the IC50 is the midpoint of a concentration-inhibition curve.
